Laboratory results reported in US20210009542A1 (Calico Life Sciences LLC, priority 2018, published 2021).
Read-outs that look alike come from different tables or passages of the source.

How the values were obtained:
[1] = test system: B16F10 mouse melanoma cells; assay: B16F10 IFNγ-induced cellular growth inhibition assay; type: cell-based; settings: Mus musculus, B16-F10, 33 μM compound
Summary of the method: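 Live-cell imaging of confluence every 6 h over 5 days at 37 °C tracked growth of mouse B16F10 melanoma cells seeded overnight at 500/well. Semi-log compound series (final 100–0.001 μM, 0.1% DMSO) ran in both arms, ±IFNγ at 0.5 ng/mL final; inhibition taken relative to DMSO plus IFNγ when IFNγ-free DMSO wells passed 95% confluence.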

[2] = molecular target: T1, His tagged PTPN2 (TC45) protein (Homo sapiens, UniProt P17706); assay: Mobility shift assay (MSA) for potency of PTPN2 inhibitors; type: biochemical; settings: read-out: PTPN2 MSA IC50
T1 construct: made in house
T1 sequence (P17706 with tags, fused parts or gaps isoform P17706-2): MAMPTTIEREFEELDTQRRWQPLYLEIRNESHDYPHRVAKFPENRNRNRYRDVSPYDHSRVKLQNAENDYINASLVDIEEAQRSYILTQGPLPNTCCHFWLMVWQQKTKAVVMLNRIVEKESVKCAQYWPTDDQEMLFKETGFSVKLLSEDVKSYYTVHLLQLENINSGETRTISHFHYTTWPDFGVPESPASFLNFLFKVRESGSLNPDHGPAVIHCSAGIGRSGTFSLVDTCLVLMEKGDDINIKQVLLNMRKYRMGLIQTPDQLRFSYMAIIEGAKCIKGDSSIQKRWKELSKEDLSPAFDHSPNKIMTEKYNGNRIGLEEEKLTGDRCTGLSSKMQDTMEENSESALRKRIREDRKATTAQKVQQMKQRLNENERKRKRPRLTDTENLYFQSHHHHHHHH
Summary of the method: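 IC50 values were derived from % inhibition of substrate conversion, measured by microfluidic mobility shift (ex 488/em 530) after quenching. The fluorescent phosphotyrosine insulin-receptor peptide ([…]) reacted for 10 min at room temperature with 0.5 nM His-tagged TC45 PTPN2 that had been preincubated 10 min with compound (12 points, 1:3). Buffer was HEPES pH 7.5 with EGTA, EDTA, Tween 20 and DTT.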

[3] = +0.5 ng/mL IFNγ, relative to DMSO control, read-out: % B16F10 growth inhibition (+0.5 ng/mL IFNγ) @ 33 μM
[4] = no IFNγ, read-out: % B16F10 growth inhibition (no IFNγ) @ 33 μM

Row | SMILES | inhibition at 33 µM [1, 3] | inhibition at 33 µM [1, 4] | IC50 [2]
1 | O=C1CN(c2c(O)cc3ccc(OCCF)cc3c2F)S(=O)(=O)N1 [Compound 198, 5-[1-fluoro-7-(2-fluoroethoxy)-3-hydroxynaphthalen-2-yl]-1λ^6,2,5-thiadiazolidine-1,1,3-trione] | 60 to 90% | < 25% | 1 to 10 nM
2 | CC(C)CCNc1ccc2cc(O)c(N3CC(=O)NS3(=O)=O)c(F)c2c1 [Compound 200, 5-{1-fluoro-3-hydroxy-7-[(3-methylbutyl)amino]naphthalen-2-yl}-1λ^6,2,5-thiadiazolidine-1,1,3-trione] | > 90% | < 25% | 1 to 10 nM
3 | CC(C)CNc1ccc2cc(O)c(N3CC(=O)NS3(=O)=O)c(F)c2c1 [Compound 201, 5-{1-fluoro-3-hydroxy-7-[(2-methylpropyl)amino]naphthalen-2-yl}-1λ^6,2,5-thiadiazolidine-1,1,3-trione] | 60 to 90% | < 25% | 1 to 10 nM
4 | N#CCOc1ccc2cc(O)c(N3CC(=O)NS3(=O)=O)c(F)c2c1 [Compound 203, {[8-fluoro-6-hydroxy-7-(1,1,4-trioxo-1λ^6,2,5-thiadiazolidin-2-yl)naphthalen-2-yl]oxy}acetonitrile] | 60 to 90% | < 25% | 1 to 10 nM
5 | CC(C)CCOc1ccc2cc(O)c(N3CC(=O)NS3(=O)=O)c(F)c2c1 [Compound 204, 5-[1-fluoro-3-hydroxy-7-(3-methylbutoxy)naphthalen-2-yl]-1λ^6,2,5-thiadiazolidine-1,1,3-trione] | 60 to 90% | < 25% | < 1 nM
6 | COc1ccc2cc(O)c(N3CC(=O)NS3(=O)=O)c(F)c2c1F [Compound 205, 5-(1,8-difluoro-3-hydroxy-7-methoxynaphthalen-2-yl)-1λ^6,2,5-thiadiazolidine-1,1,3-trione] | 25 to 59% | < 25% | 10 to 100 nM
7 | O=C1CN(c2c(O)cc3ccc(C4CN(S(=O)(=O)C5CC5)C4)cc3c2F)S(=O)(=O)N1 [Compound 206, 5-{7-[1-(cyclopropanesulfonyl)azetidin-3-yl]-1-fluoro-3-hydroxynaphthalen-2-yl}-1λ^6,2,5-thiadiazolidine-1,1,3-trione] | 60 to 90% | < 25% | 1 to 10 nM
8 | O=C1CN(c2c(O)cc3ccc(C4CN(C(=O)C5CC5)C4)cc3c2F)S(=O)(=O)N1 [Compound 207, 5-{7-[1-(cyclopropanecarbonyl)azetidin-3-yl]-1-fluoro-3-hydroxynaphthalen-2-yl}-1λ^6,2,5-thiadiazolidine-1,1,3-trione] | 25 to 59% | < 25% | 1 to 10 nM
9 | N#C/C=C/c1ccc2cc(O)c(N3CC(=O)NS3(=O)=O)c(F)c2c1 [Compound 208, (2E)-3-[8-fluoro-6-hydroxy-7-(1,1,4-trioxo-1λ^6,2,5-thiadiazolidin-2-yl)naphthalen-2-yl]prop-2-enenitrile] | < 25% | < 25% | 1 to 10 nM
10 | O=C1CN(c2c(O)cc3ccc(CCC4CC4)cc3c2F)S(=O)(=O)N1 [Compound 209, 5-[7-(2-cyclopropylethyl)-1-fluoro-3-hydroxynaphthalen-2-yl]-1λ^6,2,5-thiadiazolidine-1,1,3-trione] | 60 to 90% | < 25% | 1 to 10 nM
11 | O=C1CN(c2c(O)cc3ccc(OCCC4CC4)cc3c2F)S(=O)(=O)N1 [Compound 211, 5-[7-(2-cyclopropylethoxy)-1-fluoro-3-hydroxynaphthalen-2-yl]-1λ^6,2,5-thiadiazolidine-1,1,3-trione] | 60 to 90% | < 25% | < 1 nM
12 | O=C1CN(c2c(O)cc3ccc(OCCOCC4CC4)cc3c2F)S(=O)(=O)N1 [Compound 212, 5-{7-[2-(cyclopropylmethoxy)ethoxy]-1-fluoro-3-hydroxynaphthalen-2-yl}-1λ^6,2,5-thiadiazolidine-1,1,3-trione] | 60 to 90% | < 25% | 1 to 10 nM
13 | O=C1CN(c2c(O)cc3ccc(OCCOC4CCC4)cc3c2F)S(=O)(=O)N1 [Compound 214, 5-{7-[2-(cyclobutyloxy)ethoxy]-1-fluoro-3-hydroxynaphthalen-2-yl}-1λ^6,2,5-thiadiazolidine-1,1,3-trione] | 60 to 90% | < 25% | 1 to 10 nM
14 | CC(C)OCCOc1ccc2cc(O)c(N3CC(=O)NS3(=O)=O)c(F)c2c1 [Compound 215, 5-(1-fluoro-3-hydroxy-7-{2-[(propan-2-yl)oxy]ethoxy}naphthalen-2-yl)-1λ^6,2,5-thiadiazolidine-1,1,3-trione] | 60 to 90% | < 25% | 1 to 10 nM
15 | CCOCCCOc1ccc2cc(O)c(N3CC(=O)NS3(=O)=O)c(F)c2c1 [Compound 216, 5-[7-(3-ethoxypropoxy)-1-fluoro-3-hydroxynaphthalen-2-yl]-1λ^6,2,5-thiadiazolidine-1,1,3-trione] | 25 to 59% | < 25% | 1 to 10 nM
16 | CC(C)(C)OCCOc1ccc2cc(O)c(N3CC(=O)NS3(=O)=O)c(F)c2c1 [Compound 217, 5-[7-(2-tert-butoxyethoxy)-1-fluoro-3-hydroxynaphthalen-2-yl]-1λ^6,2,5-thiadiazolidine-1,1,3-trione] | 25 to 59% | < 25% | 1 to 10 nM
17 | O=C1CN(c2c(O)cc3ccc(OC4CC4)cc3c2F)S(=O)(=O)N1 [Compound 223, 5-[7-(cyclopropyloxy)-1-fluoro-3-hydroxynaphthalen-2-yl]-1λ^6,2,5-thiadiazolidine-1,1,3-trione] | 60 to 90% | < 25% | 1 to 10 nM
18 | O=C1CN(c2c(O)cc3ccc(NCCC4CC4)cc3c2F)S(=O)(=O)N1 [Compound 224, 5-{7-[(2-cyclopropylethyl)amino]-1-fluoro-3-hydroxynaphthalen-2-yl}-1λ^6,2,5-thiadiazolidine-1,1,3-trione] | > 90% | < 25% | 1 to 10 nM
19 | O=C1CN(c2c(O)cc3ccc(C4CNC4)cc3c2F)S(=O)(=O)N1 [Compound 226, 5-[7-(azetidin-3-yl)-1-fluoro-3-hydroxynaphthalen-2-yl]-1λ^6,2,5-thiadiazolidine-1,1,3-trione] | 60 to 90% | < 25% | 1 to 10 nM
20 | COc1ccc(-c2ccc3cc(O)c(N4CC(=O)NS4(=O)=O)c(F)c3c2)s1 [Compound 227, 5-[1-fluoro-3-hydroxy-7-(5-methoxythiophen-2-yl)naphthalen-2-yl]-1λ^6,2,5-thiadiazolidine-1,1,3-trione] | 60 to 90% | < 25% | 1 to 10 nM
21 | O=C1CN(c2c(O)cc3ccc(OCC4CC(F)(F)C4)cc3c2F)S(=O)(=O)N1 [Compound 235, 5-{7-[(3,3-difluorocyclobutyl)methoxy]-1-fluoro-3-hydroxynaphthalen-2-yl}-1λ^6,2,5-thiadiazolidine-1,1,3-trione] | 60 to 90% | < 25% | 1 to 10 nM
22 | O=C1CN(c2c(O)cc3ccc(C4=CCN(C(=O)C5CC5)C4)cc3c2F)S(=O)(=O)N1 [Compound 237, 5-{7-[1-(cyclopropanecarbonyl)-2,5-dihydro-1H-pyrrol-3-yl]-1-fluoro-3-hydroxynaphthalen-2-yl}-1λ^6,2,5-thiadiazolidine-1,1,3-trione] | > 90% | < 25% | 1 to 10 nM
23 | COc1ccc2c(Cl)c(O)c(N3CC(=O)NS3(=O)=O)c(F)c2c1 [Compound 238, 5-(4-chloro-1-fluoro-3-hydroxy-7-methoxynaphthalen-2-yl)-1λ^6,2,5-thiadiazolidine-1,1,3-trione] | < 25% | < 25% | 10 to 100 nM
24 | O=C1CN(c2c(O)cc3ccc(/C=C/C4CC4)cc3c2F)S(=O)(=O)N1 [Compound 239, 5-{7-[(E)-2-cyclopropylethenyl]-1-fluoro-3-hydroxynaphthalen-2-yl}-1λ^6,2,5-thiadiazolidine-1,1,3-trione] | 60 to 90% | < 25% | 1 to 10 nM
25 | CC(C)C/C=C/c1ccc2cc(O)c(N3CC(=O)NS3(=O)=O)c(F)c2c1 [Compound 240, 5-{1-fluoro-3-hydroxy-7-[(1E)-4-methylpent-1-en-1-yl]naphthalen-2-yl}-1λ^6,2,5-thiadiazolidine-1,1,3-trione] | 25 to 59% | < 25% | 1 to 10 nM
